Test results taken from PMC10682951, “Structure-function and rational design of a spider toxin Ssp1a at human voltage-gated sodium channel subtypes” (Frontiers in Pharmacology, 2023).
Bridge positions count the residues as written; N and C are the ends. Peptide text beside a SMILES is read from it.

Legend:
Format in all cases: cell-based
hNaV1.3 = target: T1, hNaV1.3 (Homo sapiens, UniProt Q9NY46); test: Automated whole-cell patch-clamp (QPatch 16X), hNaV1.3; conditions: HEK293 cells expressing hNaV1.3 + β1 subunit; QPatch 16X; holding −80 mV, step to 0 mV; peptide incubated 2 min; 0.1% BSA; mean, SEM and n (3-12)
T1 construct: host or cells: HEK293
Method in brief: (§1)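 HEK293 cells stably expressing the channel (human subtypes with β1 subunit), held at −80 mV; 2 min peptide pre-incubation, then 20 ms steps to 0 mV after a 200 ms −120 mV conditioning pulse. Extracellular pH 7.3 with 20 mM TEA-Cl, CsF-based pipette solution, 0.1% BSA; IC50 from four-parameter Hill fit.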

hNaV1.7 = target: T2, hNaV1.7 (Homo sapiens, UniProt Q15858); test: Automated whole-cell patch-clamp (QPatch 16X), hNaV1.7; conditions: HEK293 cells expressing hNaV1.7 + β1 subunit; QPatch 16X; holding −80 mV, step to 0 mV; peptide incubated 2 min; 0.1% BSA; mean, SEM and n (3-9)
T2 construct: host or cells: HEK293
Method in brief: as §1

hNaV1.2 = target: T3, hNaV1.2 (Homo sapiens, UniProt Q99250); test: Automated whole-cell patch-clamp (QPatch 16X), hNaV1.2; conditions: HEK293 cells expressing hNaV1.2 + β1 subunit; QPatch 16X; holding −80 mV, step to 0 mV; peptide incubated 2 min; 0.1% BSA; mean, SEM and n (2-7)
T3 construct: host or cells: HEK293
Method in brief: as §1

T2 sequence (Q15858 whole entry): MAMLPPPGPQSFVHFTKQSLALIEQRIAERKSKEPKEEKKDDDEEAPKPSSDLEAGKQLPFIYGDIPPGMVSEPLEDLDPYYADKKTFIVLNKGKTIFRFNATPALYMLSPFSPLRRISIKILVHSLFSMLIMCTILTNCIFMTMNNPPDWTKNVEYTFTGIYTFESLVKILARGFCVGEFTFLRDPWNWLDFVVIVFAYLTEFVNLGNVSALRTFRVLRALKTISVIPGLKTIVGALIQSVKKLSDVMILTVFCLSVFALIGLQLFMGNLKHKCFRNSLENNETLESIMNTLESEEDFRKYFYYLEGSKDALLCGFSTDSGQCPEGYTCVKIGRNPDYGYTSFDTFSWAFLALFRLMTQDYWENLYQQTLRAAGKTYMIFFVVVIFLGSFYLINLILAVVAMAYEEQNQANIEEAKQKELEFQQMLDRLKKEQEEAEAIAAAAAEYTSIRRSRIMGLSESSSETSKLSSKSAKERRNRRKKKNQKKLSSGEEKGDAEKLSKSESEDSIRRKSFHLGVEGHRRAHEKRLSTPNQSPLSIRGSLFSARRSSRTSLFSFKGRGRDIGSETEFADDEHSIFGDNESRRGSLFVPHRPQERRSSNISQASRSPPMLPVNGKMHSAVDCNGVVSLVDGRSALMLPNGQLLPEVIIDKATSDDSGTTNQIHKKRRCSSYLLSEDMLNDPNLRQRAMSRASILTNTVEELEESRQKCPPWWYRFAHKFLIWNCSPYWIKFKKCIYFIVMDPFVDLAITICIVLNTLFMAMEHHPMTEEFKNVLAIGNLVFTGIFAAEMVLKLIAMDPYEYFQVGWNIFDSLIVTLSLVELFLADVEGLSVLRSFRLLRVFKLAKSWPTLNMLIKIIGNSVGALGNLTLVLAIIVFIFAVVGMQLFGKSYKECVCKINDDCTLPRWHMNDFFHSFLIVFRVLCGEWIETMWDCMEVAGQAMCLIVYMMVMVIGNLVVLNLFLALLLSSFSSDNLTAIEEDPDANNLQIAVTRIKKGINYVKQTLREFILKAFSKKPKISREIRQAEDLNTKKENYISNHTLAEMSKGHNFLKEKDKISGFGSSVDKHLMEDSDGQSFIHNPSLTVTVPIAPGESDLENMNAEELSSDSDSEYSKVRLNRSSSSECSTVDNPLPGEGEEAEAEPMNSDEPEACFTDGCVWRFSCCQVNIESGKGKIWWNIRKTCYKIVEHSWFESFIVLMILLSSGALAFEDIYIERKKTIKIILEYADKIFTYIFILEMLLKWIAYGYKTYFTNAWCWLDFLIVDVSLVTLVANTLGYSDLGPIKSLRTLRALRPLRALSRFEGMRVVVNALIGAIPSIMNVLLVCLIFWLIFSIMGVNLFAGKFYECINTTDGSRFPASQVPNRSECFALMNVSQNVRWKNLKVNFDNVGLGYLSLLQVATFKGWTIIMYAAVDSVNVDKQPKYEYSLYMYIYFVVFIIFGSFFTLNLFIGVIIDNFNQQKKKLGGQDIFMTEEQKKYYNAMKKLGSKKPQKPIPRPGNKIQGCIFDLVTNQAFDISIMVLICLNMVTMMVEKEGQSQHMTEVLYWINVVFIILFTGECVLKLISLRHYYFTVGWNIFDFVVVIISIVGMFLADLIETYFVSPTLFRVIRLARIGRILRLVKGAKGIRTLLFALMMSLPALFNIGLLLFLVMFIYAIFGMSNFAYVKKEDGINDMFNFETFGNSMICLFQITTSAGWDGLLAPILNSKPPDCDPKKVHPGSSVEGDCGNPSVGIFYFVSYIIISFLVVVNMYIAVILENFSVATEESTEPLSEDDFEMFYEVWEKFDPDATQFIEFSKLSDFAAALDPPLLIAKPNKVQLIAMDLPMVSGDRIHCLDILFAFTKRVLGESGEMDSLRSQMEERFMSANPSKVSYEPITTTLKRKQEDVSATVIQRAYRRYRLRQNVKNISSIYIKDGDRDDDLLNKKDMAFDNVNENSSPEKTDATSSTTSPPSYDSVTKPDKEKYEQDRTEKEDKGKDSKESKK
T2 sequence (Q07699 19-218, further chain): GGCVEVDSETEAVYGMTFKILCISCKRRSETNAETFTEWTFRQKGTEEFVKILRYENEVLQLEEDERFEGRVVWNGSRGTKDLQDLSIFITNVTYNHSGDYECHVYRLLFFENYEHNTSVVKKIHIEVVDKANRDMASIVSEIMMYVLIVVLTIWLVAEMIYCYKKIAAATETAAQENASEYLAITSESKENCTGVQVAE
T1 sequence (Q9NY46 whole entry): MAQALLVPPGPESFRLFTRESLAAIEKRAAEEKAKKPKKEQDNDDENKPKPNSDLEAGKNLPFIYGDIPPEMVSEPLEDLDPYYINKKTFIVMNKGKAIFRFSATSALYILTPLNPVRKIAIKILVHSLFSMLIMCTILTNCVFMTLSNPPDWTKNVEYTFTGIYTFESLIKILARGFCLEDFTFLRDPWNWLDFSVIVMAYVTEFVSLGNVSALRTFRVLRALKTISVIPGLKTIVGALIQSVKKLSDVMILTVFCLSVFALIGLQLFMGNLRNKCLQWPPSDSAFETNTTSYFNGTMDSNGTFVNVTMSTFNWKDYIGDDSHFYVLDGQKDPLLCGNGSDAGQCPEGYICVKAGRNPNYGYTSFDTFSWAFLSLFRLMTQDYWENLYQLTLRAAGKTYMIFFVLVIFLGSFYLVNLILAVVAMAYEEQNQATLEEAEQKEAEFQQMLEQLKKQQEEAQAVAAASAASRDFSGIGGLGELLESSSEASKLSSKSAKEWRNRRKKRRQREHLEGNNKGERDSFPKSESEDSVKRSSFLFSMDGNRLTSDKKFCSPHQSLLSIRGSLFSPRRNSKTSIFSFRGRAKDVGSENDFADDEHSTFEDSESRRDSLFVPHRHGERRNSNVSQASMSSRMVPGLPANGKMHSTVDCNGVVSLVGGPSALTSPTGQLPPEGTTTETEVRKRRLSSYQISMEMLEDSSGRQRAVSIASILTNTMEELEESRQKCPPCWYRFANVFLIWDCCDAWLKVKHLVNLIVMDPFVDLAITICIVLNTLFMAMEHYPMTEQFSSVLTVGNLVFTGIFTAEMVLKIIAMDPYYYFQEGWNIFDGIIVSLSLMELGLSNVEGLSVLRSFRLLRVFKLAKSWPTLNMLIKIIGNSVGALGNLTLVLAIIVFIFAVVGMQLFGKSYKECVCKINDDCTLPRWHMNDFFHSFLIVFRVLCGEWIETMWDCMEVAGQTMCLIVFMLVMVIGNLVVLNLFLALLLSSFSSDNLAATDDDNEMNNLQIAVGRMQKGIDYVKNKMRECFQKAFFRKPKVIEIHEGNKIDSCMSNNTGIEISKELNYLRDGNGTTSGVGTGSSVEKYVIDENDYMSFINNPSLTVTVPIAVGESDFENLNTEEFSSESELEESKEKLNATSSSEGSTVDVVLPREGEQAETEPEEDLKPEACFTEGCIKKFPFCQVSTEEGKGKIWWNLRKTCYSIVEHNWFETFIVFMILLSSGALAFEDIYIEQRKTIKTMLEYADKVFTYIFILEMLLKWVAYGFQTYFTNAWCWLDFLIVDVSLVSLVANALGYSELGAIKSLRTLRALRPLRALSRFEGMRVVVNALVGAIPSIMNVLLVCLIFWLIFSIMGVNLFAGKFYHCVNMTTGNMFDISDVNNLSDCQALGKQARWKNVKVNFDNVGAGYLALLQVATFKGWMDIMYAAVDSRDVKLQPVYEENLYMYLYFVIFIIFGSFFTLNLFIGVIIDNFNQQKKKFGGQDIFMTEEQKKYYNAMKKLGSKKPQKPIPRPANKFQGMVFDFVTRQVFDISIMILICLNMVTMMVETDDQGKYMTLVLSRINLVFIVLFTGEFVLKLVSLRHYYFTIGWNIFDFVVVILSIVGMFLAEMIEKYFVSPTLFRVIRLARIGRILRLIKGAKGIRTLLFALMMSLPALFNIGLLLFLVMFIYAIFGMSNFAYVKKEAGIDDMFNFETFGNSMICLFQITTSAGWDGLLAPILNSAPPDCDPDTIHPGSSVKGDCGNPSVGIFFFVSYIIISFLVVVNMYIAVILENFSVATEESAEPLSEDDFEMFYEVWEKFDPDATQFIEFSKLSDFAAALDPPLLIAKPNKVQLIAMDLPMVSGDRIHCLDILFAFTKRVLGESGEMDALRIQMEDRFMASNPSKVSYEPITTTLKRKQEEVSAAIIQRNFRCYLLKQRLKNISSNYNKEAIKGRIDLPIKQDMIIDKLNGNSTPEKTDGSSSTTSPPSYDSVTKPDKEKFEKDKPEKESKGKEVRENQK
T1 sequence (Q07699 19-218, further chain): as the sequence (Q07699 19-218, further chain) above

SMILES | IC50 (hNaV1.3) [nM] | IC50 (hNaV1.7) [nM] | IC50 (hNaV1.2) [nM]
CC(C)C[C@H](NC(=O)[C@H](CC(=O)O)NC(=O)[C@@H](NC(=O)[C@H](CCCNC(=N)N)NC(=O)[C@@H]1CSSC[C@@H]2NC(=O)[C@H](CCCCN)NC(=O)[C@H](CC(N)=O)NC(=O)[C@H](CC(N)=O)NC(=O)[C@H](CC(N)=O)NC(=O)[C@@H]3CCCN3C(=O)[C@H](CC(=O)O)NC(=O)[C@@H]3CSSC[C@H](NC(=O)[C@H](C(C)C)NC(=O)[C@H](Cc4ccc(O)cc4)NC(=O)CNC(=O)[C@H](CCC(=O)O)NC(=O)[C@H](CSSC[C@H](NC(=O)[C@H](CC(=O)O)NC(=O)CN)C(=O)N[C@@H](CC(C)C)C(=O)NCC(=O)N[C@@H](Cc4c[nH]c5ccccc45)C(=O)N[C@@H](Cc4ccccc4)C(=O)N[C@@H](CO)C(=O)NCC(=O)N3)NC2=O)C(=O)N[C@@H](Cc2c[nH]cn2)C(=O)N[C@@H](Cc2c[nH]c3ccccc23)C(=O)N[C@@H](CCCCN)C(=O)N[C@@H](Cc2ccc(O)cc2)C(=O)N2CCC[C@H]2C(=O)N[C@@H](Cc2c[nH]c3ccccc23)C(=O)N1)[C@@H](C)O)C(=O)O [Y31T] | > 3000 | 545 | 874
CC(C)C[C@H](NC(=O)[C@H](CC(=O)O)NC(=O)[C@H](Cc1ccc(O)cc1)NC(=O)[C@H](CCCNC(=N)N)NC(=O)[C@@H]1CSSC[C@@H]2NC(=O)[C@H](CCCCN)NC(=O)[C@H](CC(N)=O)NC(=O)[C@H](CC(N)=O)NC(=O)[C@H](CC(N)=O)NC(=O)[C@@H]3CCCN3C(=O)[C@H](CC(=O)O)NC(=O)[C@@H]3CSSC[C@H](NC(=O)[C@H](C(C)C)NC(=O)[C@H](CC(C)C)NC(=O)CNC(=O)[C@H](CCC(=O)O)NC(=O)[C@H](CSSC[C@H](NC(=O)[C@H](CC(=O)O)NC(=O)CN)C(=O)N[C@@H](CC(C)C)C(=O)NCC(=O)N[C@@H](Cc4c[nH]c5ccccc45)C(=O)N[C@@H](Cc4ccccc4)C(=O)N[C@@H](CO)C(=O)NCC(=O)N3)NC2=O)C(=O)N[C@@H](Cc2c[nH]cn2)C(=O)N[C@@H](Cc2c[nH]c3ccccc23)C(=O)N[C@@H](CCCCN)C(=O)N[C@@H](Cc2ccc(O)cc2)C(=O)N2CCC[C@H]2C(=O)N[C@@H](Cc2c[nH]c3ccccc23)C(=O)N1)C(=O)O [Y20L] | 476 | 288 | 340
CC(C)C[C@H](NC(=O)[C@H](CC(=O)O)NC(=O)[C@H](C)NC(=O)[C@H](CCCNC(=N)N)NC(=O)[C@@H]1CSSC[C@@H]2NC(=O)[C@H](CCCCN)NC(=O)[C@H](CC(N)=O)NC(=O)[C@H](CC(N)=O)NC(=O)[C@H](CC(N)=O)NC(=O)[C@@H]3CCCN3C(=O)[C@H](CC(=O)O)NC(=O)[C@@H]3CSSC[C@H](NC(=O)[C@H](C(C)C)NC(=O)[C@H](Cc4ccc(O)cc4)NC(=O)CNC(=O)[C@H](CCC(=O)O)NC(=O)[C@H](CSSC[C@H](NC(=O)[C@H](CC(=O)O)NC(=O)CN)C(=O)N[C@@H](CC(C)C)C(=O)NCC(=O)N[C@@H](Cc4c[nH]c5ccccc45)C(=O)N[C@@H](Cc4ccccc4)C(=O)N[C@@H](CO)C(=O)NCC(=O)N3)NC2=O)C(=O)N[C@@H](Cc2c[nH]cn2)C(=O)N[C@@H](Cc2c[nH]c3ccccc23)C(=O)N[C@@H](CCCCN)C(=O)N[C@@H](Cc2ccc(O)cc2)C(=O)N2CCC[C@H]2C(=O)N[C@@H](Cc2c[nH]c3ccccc23)C(=O)N1)C(=O)O [Y31A] | > 1000 | 254 | 633
CC(C)C[C@H](NC(=O)[C@H](Cc1ccc(O)cc1)NC(=O)[C@H](Cc1ccc(O)cc1)NC(=O)[C@H](CCCNC(=N)N)NC(=O)[C@@H]1CSSC[C@@H]2NC(=O)[C@H](CCCCN)NC(=O)[C@H](CC(N)=O)NC(=O)[C@H](CC(N)=O)NC(=O)[C@H](CC(N)=O)NC(=O)[C@@H]3CCCN3C(=O)[C@H](CC(=O)O)NC(=O)[C@@H]3CSSC[C@H](NC(=O)[C@H](C(C)C)NC(=O)[C@H](Cc4ccc(O)cc4)NC(=O)CNC(=O)[C@H](CCC(=O)O)NC(=O)[C@H](CSSC[C@H](NC(=O)CNC(=O)CN)C(=O)N[C@@H](CC(C)C)C(=O)NCC(=O)N[C@@H](Cc4c[nH]c5ccccc45)C(=O)N[C@@H](Cc4ccccc4)C(=O)N[C@@H](CO)C(=O)NCC(=O)N3)NC2=O)C(=O)N[C@@H](Cc2c[nH]cn2)C(=O)N[C@@H](Cc2c[nH]c3ccccc23)C(=O)N[C@@H](CCCCN)C(=O)N[C@@H](Cc2ccc(O)cc2)C(=O)N2CCC[C@H]2C(=O)N[C@@H](Cc2c[nH]c3ccccc23)C(=O)N1)C(=O)O [D1G/D32Y] (H-GGCLGWFSGCDPNNNKCCEGYVCHWKYPWCRYYL-OH; disulfide 3-18, 10-23, 17-30) | 111 | 91 | 86
CC(C)C[C@H](NC(=O)[C@H](CC(=O)O)NC(=O)[C@H](Cc1ccc(O)cc1)NC(=O)[C@H](CCCNC(=N)N)NC(=O)[C@@H]1CSSC[C@@H]2NC(=O)[C@H](CCCCN)NC(=O)[C@H](CC(N)=O)NC(=O)[C@H](CC(N)=O)NC(=O)[C@H](CC(N)=O)NC(=O)[C@@H]3CCCN3C(=O)[C@H](CC(=O)O)NC(=O)[C@@H]3CSSC[C@H](NC(=O)[C@H](C(C)C)NC(=O)[C@H](Cc4ccc(O)cc4)NC(=O)CNC(=O)[C@H](CCC(=O)O)NC(=O)[C@H](CSSC[C@H](NC(=O)[C@H](CC(=O)O)NC(=O)CN)C(=O)N[C@@H](CC(C)C)C(=O)NCC(=O)N[C@@H](Cc4c[nH]c5ccccc45)C(=O)N[C@@H](Cc4ccccc4)C(=O)N[C@@H](CO)C(=O)NCC(=O)N3)NC2=O)C(=O)N[C@@H](Cc2c[nH]cn2)C(=O)N[C@@H](Cc2c[nH]c3ccccc23)C(=O)N[C@@H](CCCCN)C(=O)N[C@@H](Cc2c[nH]cn2)C(=O)N2CCC[C@H]2C(=O)N[C@@H](Cc2c[nH]c3ccccc23)C(=O)N1)C(=O)O [Y26H] | 484 | 244 | 369
CC(C)C[C@H](NC(=O)[C@H](CO)NC(=O)[C@H](Cc1ccc(O)cc1)NC(=O)[C@H](CCCNC(=N)N)NC(=O)[C@@H]1CSSC[C@@H]2NC(=O)[C@H](CCCCN)NC(=O)[C@H](CC(N)=O)NC(=O)[C@H](CC(N)=O)NC(=O)[C@H](CC(N)=O)NC(=O)[C@@H]3CCCN3C(=O)[C@H](CC(=O)O)NC(=O)[C@@H]3CSSC[C@H](NC(=O)[C@H](C(C)C)NC(=O)[C@H](Cc4ccc(O)cc4)NC(=O)CNC(=O)[C@H](CCC(=O)O)NC(=O)[C@H](CSSC[C@H](NC(=O)[C@H](CC(=O)O)NC(=O)CN)C(=O)N[C@@H](CC(C)C)C(=O)NCC(=O)N[C@@H](Cc4c[nH]c5ccccc45)C(=O)N[C@@H](Cc4ccccc4)C(=O)N[C@@H](CO)C(=O)NCC(=O)N3)NC2=O)C(=O)N[C@@H](Cc2c[nH]cn2)C(=O)N[C@@H](Cc2c[nH]c3ccccc23)C(=O)N[C@@H](CCCCN)C(=O)N[C@@H](Cc2ccc(O)cc2)C(=O)N2CCC[C@H]2C(=O)N[C@@H](Cc2c[nH]c3ccccc23)C(=O)N1)C(=O)O [D32S] | 137 | 101 | 97
CC(C)C[C@H](NC(=O)[C@H](CCCCN)NC(=O)[C@H](Cc1ccc(O)cc1)NC(=O)[C@H](CCCNC(=N)N)NC(=O)[C@@H]1CSSC[C@@H]2NC(=O)[C@H](CCCCN)NC(=O)[C@H](CC(N)=O)NC(=O)[C@H](CC(N)=O)NC(=O)[C@H](CC(N)=O)NC(=O)[C@@H]3CCCN3C(=O)[C@H](CC(=O)O)NC(=O)[C@@H]3CSSC[C@H](NC(=O)[C@H](C(C)C)NC(=O)[C@H](Cc4ccc(O)cc4)NC(=O)CNC(=O)[C@H](CCC(=O)O)NC(=O)[C@H](CSSC[C@H](NC(=O)[C@H](CC(=O)O)NC(=O)CN)C(=O)N[C@@H](CC(C)C)C(=O)NCC(=O)N[C@@H](Cc4c[nH]c5ccccc45)C(=O)N[C@@H](Cc4ccccc4)C(=O)N[C@@H](CO)C(=O)NCC(=O)N3)NC2=O)C(=O)N[C@@H](Cc2c[nH]cn2)C(=O)N[C@@H](Cc2c[nH]c3ccccc23)C(=O)N[C@@H](CCCCN)C(=O)N[C@@H](Cc2ccc(O)cc2)C(=O)N2CCC[C@H]2C(=O)N[C@@H](Cc2c[nH]c3ccccc23)C(=O)N1)C(=O)O [D32K] | 98 | 86 | 75
